The values that follow come from patent publication US10799590B2, “Compositions containing a bitter tastant and at least one sophorolipid, and methods of reducing bitter taste attributed to a bitter tastant in an edible composition” (The United States of America, as Represented by the …, priority 2015, dated 2020).

In assay [1] the test system is chorda tympani nerve of wild-type B6 mice. The assay is described as follows: Chorda tympani whole-nerve responses to lingual taste stimuli, wild-type B6 mice. The class given is in vivo. Conditions: lingual application (FIG. 6B, 7). On the procedure: (§1) Mouse model for sweet property and bitter-masking assay. Recordings of chorda tympani (CT) whole-nerve responses: All protocols involving animals were approved by the Institutional Animal Care and Use Committees at the Monell Center prior to the experiments. The study was performed with mice from two strains: C57BL/6J inbred strain (B6; Jackson Laboratory, Bar Harbor, Me.) bearing the wild-type Tas1r3 allele was used as the control, and the C57BL/6J-Tas1r3^tm1Rjm “gene-knockout” strain (T1R3-KO) lacking the entire T1R3 coding region and devoid of T1R3 protein ([…]., et al., Science, 301: 850-853 (2003)). Afferent signals from taste cells are relayed to the brain via three major gustatory nerves: the chorda tympani, glossopharyngeal, and greater superficial petrosal. […] Neural responses resulting from chemical stimulations of the tongue were fed into an amplifier (Grass Instruments, West Warwick, R.I.) and monitored on an oscilloscope and an audio monitor. Whole-nerve responses were integrated with a time constant of 1.0 s and recorded using a computer for later analysis using a PowerLab system (PowerLab/sp4; AD Instruments, Colorado Springs, Colo.). […] To analyze nerve responses to each stimulus, the magnitudes of integrated responses at 5, 10, 15, 20, and 25 s after stimulus onset were measured and averaged. […]

The next assay has as its system T1R3. Kind of assay: Chorda tympani whole-nerve responses to lingual taste stimuli, T1R3-KO mice. Conditions: lingual application (FIG. 6A, 7). The class given is in vivo. On the procedure:
as §1

Assay [2] relates to cultured human fungiform taste papillae cells (HBO cells). The assay is described as follows: Calcium imaging of cultured human fungiform taste papillae (HBO) cells: response frequency, estimation of sweet potency. It counts as cell-based. The text has this: In vitro cell-based assay of sweet property. Establishment and maintenance of cultures of human fungiform taste papillae cells (HBO cells): We previously established the current proprietary protocol (Ozdener, H., et al., Chem. Senses, 31(3): 279-90 (2006); Ozdener, M. H., et al., Chem. Senses, 36(7): 601-12 (2011); Ozdener, H., et al., Isolation and culture of human fungiform taste papillae cells, J. Vis. Exp., 2012 May 17;(63):e3730) which allowed us to culture human fungiform taste papillae cells retaining their physiological and molecular characteristics for more than a year. […] The human fungiform taste papillae cells were cultured according to protocols that we have published (Ozdener et al. 2006, Ozdener et al. 2011). Human fungiform taste papillae were removed and immediately placed into an isolation solution followed by enzymatic digestion. Digested fungiform papillae were then gently minced with a surgical razor and seeded on collagen type-1 coated coverslips and incubated at 36° C. in a humidified environment containing 5% CO2. The fungiform taste papillae cells were cultured in Iscove's Modified Dulbecco's medium containing 10% fetal bovine serum, 1:5 ratio of MCDB (Molecular, Cellular, and Developmental Biology) 153 medium, and a triple cocktail of antibiotics (100 U/mL/100 μg/mL, penicillin/streptomycin, and 0.5 μg/mL fungizone). Culture medium was replaced every 5-7 days by one-third of fresh culture medium. Human fungiform taste papillae cells have been maintained in culture for a period of more than 1 year without loss of viability and with retention of the molecular and biochemical properties of acutely isolated taste cells (Ozdener et al., 2011). Calcium imaging: Cultured taste cells grown for 3-4 days glass coverslips which were loaded for 30-60 min with the calcium sensitive dye fura-2 by incubating the cells in Ringer solution (145 mM NaCl, 5 mM KCl, 1 mM MgCl2, 1 mM CaCl2, 1 mM Na-pyruvate, 20 mM Hepes-Na and Cellobiose 15 mM, pH 7.2 with osmolarity adjusted to 300-310 by 5M NaCl) supplemented with […] (Molecular Probes Inc., Eugene, Oreg.) and 10 mg/ml Pluronic® F127 (Molecular Probes Inc.). Coverslips were then placed in a recording chamber and continuously bathed with Ringer solution superfusion. Stimuli were dissolved in Ringer and then pH and osmolarity readjusted if needed. Cells were exposed to sweet ([…]), bitter mixture (PTC (phenylthiocarbamide)) 2mM+Salicin 5 mM+Denatonium 2 mM), guaifenesin (GF, 3 mM) and acetaminophen (APAP, 3 mM), and various sophorolipids stimuli: sophorose, sophorolipid palmitic acid, sophorolipid stearic acid, sophorolipid oleic acid. […]

In the case of `OC[C@H]1O[C@@](CO)(O[C@H]2O[C@H](CO)[C@@H](O)[C@H](O)[C@H]2O)[C@@H](O)[C@@H]1O` [sucrose], the chorda tympani responses entry is given as “present” in assay [1] and “nearly absent” with T1R3.

With `OC[C@H]1O[C@H](O[C@]2(CCl)O[C@H](CCl)[C@@H](O)[C@@H]2O)[C@H](O)[C@@H](O)[C@H]1Cl` [Sucralose, sucralose], in assay [2] (cultured human taste cells, concentration 5 mM), the “%-responsive cells” value is given as 16.67%. Besides, in assay [2] (tested at 5 mM, sucralose 5 mM is the standard), the “Concentration adjusted response frequency” value is 16.67.
